Patent publication US20090221530A1, “Relaxase Modulators and Methods of Using Same” (priority 2005, published 2009)
Converted amounts (≈) assume the structure as drawn. Like-named read-outs stand apart in the source and are kept apart here.

Key:
Format in all cases: cell-based, E. coli
F+ or F− cells = experiment: 24 hr. MIC bounds (turbid/clear wells); conditions: 8x serial dilutions, bounds identical for F+ or F− cells; for MIC: Escherichia coli
F− recipient cells = experiment: microbe, parasite or virus in culture; conditions: for Selectivities by EC50, Donors: listed as vs. F− recipient cells relative to donors; for Selectivities by EC50, Transconj.: listed as vs. F− recipient cells relative to transconjugants; for 100 minute EC50 / EC50: vs. F− recipient cells; for EC50: read-out: 100 minute EC50
Excerpt: (§1) A 96-well fluorescence-based assay using oxygen biosensor plates (Becton Dickinson, Franklin Lakes, N.J., U.S.A.) was employed to monitor bacterial cell survival. FIG. 7 schematically illustrates the assay mechanism of action. […] In the absence of viable bacteria, however, no fluorescence emission is detected because the fluorophore is quenched by free oxygen. The assay can further be utilized to measure conjugative DNA transfer.
(§2) Relaxase-dependent cell survival was examined by placing cultures of F+/TraI+ E. coli cells (with antibiotic resistance, e.g., Ab^r1, on a non-conjugative plasmid) within wells and exposing them to putative inhibitory compounds. […] Negative controls for this assay can be F− (Ab^r2) cells and F+ cells (Ab^r1) containing either no F plasmid relaxase (TraI) gene, or a TraI harboring catalytic tyrosine to phenylalanine mutations; in both cases, these control cells should be resistant to relaxase-dependent cell toxicity. […] Fluorescence can be measured using a PHERASTAR™ fluorescence plate reader (BMG LABTECH, Offenburg, Germany) over 8 hours time.

transconjugants = experiment: microbe, parasite or virus in culture; conditions: for Selectivities by EC50, Donors: listed as vs. transconjugants relative to donors
Excerpt: as §1, §2

F+ donor cells = experiment: microbe, parasite or virus in culture; conditions: for Selectivities by EC50, Transconj.: listed as vs. F+ donor cells relative to transconjugants; for 100 minute EC50 / EC50: vs. F+ donor cells; for EC50: read-out: 100 minute EC50
Excerpt: as §1, §2

[1] = first EC50 block, mass concentration
[2] = second block, mass concentration
[3] = clear wells after 24 hr. incubation, read-out: 24 hr. MIC bounds, upper
[4] = turbid wells after 24 hr. incubation, read-out: 24 hr. MIC bounds, lower
[5] = Escherichia coli, 100 min, first EC50 block, mass concentration
[6] = Escherichia coli, 100 min, first EC50 block
[7] = Escherichia coli, 100 min, second block, mass concentration
[8] = Escherichia coli, 100 min, second block
[9] = Escherichia coli, 100 min, read-out: 100 minute EC50, vs. transconjugants, first EC50 block, mass concentration
[10] = Escherichia coli, 100 min, read-out: 100 minute EC50, vs. transconjugants, second block
[11] = Escherichia coli, 100 min, read-out: 100 minute EC50, vs. transconjugants, second block, mass concentration

Molecule | Selectivities by EC50, Donors (F− recipient cells; first EC50 block) | Selectivities by EC50, Donors (F− recipient cells; second block) | Selectivities by EC50, Transconj. (F− recipient cells; first EC50 block) | Selectivities by EC50, Transconj. (F− recipient cells; second block) | Selectivities by EC50, Donors (transconjugants; first EC50 block) | Selectivities by EC50, Donors (transconjugants; second block) | Selectivities by EC50, Transconj. (F+ donor cells; first EC50 block) | Selectivities by EC50, Transconj. (F+ donor cells; second block) | MIC (F+ or F− cells; [3]) | MIC (F+ or F− cells; [4]) | EC50 (F− recipient cells; [5]) | EC50 (F− recipient cells; [6]) | EC50 (F− recipient cells; [7]) | EC50 (F− recipient cells; [8]) | EC50 (transconjugants; [9]) | EC50 (transconjugants; [10]) | EC50 (transconjugants; [11]) | EC50 (F+ donor cells; [5]) | EC50 (F+ donor cells; [7]) | EC50 (F+ donor cells; [8]) | also measured
Methylenediphosphonate | 7.8E+01 | 1.9E+00 | 6.9E+03 | 3.5E+01 | 1.1E−02 | 5.5E−02 | 8.8E+01 | 1.8E+01 | – | – | – | – | – | – | – | – | – | – | – | – | 24 hr. MIC bounds, upper (F+ or F− cells; clear wells after 24 hr. incubation): 12.5 mM; 24 hr. MIC bounds, lower (F+ or F− cells; turbid wells after 24 hr. incubation): 1.56 mM; 100 minute EC50 (F− recipient cells; [1]): 117 µg/mL; EC50 (F− recipient cells; first EC50 block): 667 ± 0.1 µM; 100 minute EC50 (F− recipient cells; [2]): 7000 µg/mL; EC50 (F− recipient cells; second block): 41000 µM; 100 minute EC50 (transconjugants; vs. transconjugants, first EC50 block, mass concentration): 0.017 µg/mL; EC50 (transconjugants; vs. transconjugants, first EC50 block, read-out: 100 minute EC50): 0.096 ± 0.0123 µM; 100 minute EC50 (transconjugants; vs. transconjugants, second block, mass concentration): 205 µg/mL; EC50 (transconjugants; vs. transconjugants, second block, read-out: 100 minute EC50): 1000 µM; 100 minute EC50 (F+ donor cells; [1]): 1 µg/mL; EC50 (F+ donor cells; first EC50 block): 8 µM; 100 minute EC50 (F+ donor cells; [2]): 4000 µg/mL; EC50 (F+ donor cells; second block): 21000 µM
CC(O)(P(=O)(O)O)P(=O)(O)O [Etidronate, reference compound] | 4.3E+04 | 2.1E+00 | 5.9E+04 | 4.1E+01 | 7.3E−01 | 5.1E−02 | 1.4E+00 | 2.0E+01 | 12.5 mM (≈ 2580 µg/mL) | 1.56 mM (≈ 321 µg/mL) | 67 µg/mL | 327 µM | 9000 µg/mL | 42000 µM | 0.001 µg/mL | 1000 µM | 210 µg/mL | 0.002 µg/mL | 4000 µg/mL | 20000 µM | EC50 (F+ donor cells; [6]): 0.008 ± 0.0002 µM
O=P(O)(O)C(Cl)(Cl)P(=O)(O)O [Clodronate, reference compound] | 3.6E+02 | – | 3.9E+01 | – | 9.2E+00 | 1.6E−01 | 1.1E−01 | 6.1E+00 | 100 mM (≈ 24500 µg/mL) | 12.5 mM (≈ 3060 µg/mL) | 365 µg/mL | 1000 µM | > 24000 µg/mL | > 100000 µM | 9 µg/mL | 5000 µM | 1000 µg/mL | 1 µg/mL | 7000 µg/mL | 30000 µM | EC50 (transconjugants; Escherichia coli, 100 min, read-out: 100 minute EC50, vs. transconjugants, first EC50 block): 38 µM
